Data taken from patent US20120328569A1, “INHIBITORS OF HEPATITIS C VIRUS NS5B POLYMERASE” (priority 2010, published 2012).

tested on: HCV genotype 1b replicon; assay: HCV replicon assay, cell ELISA with antibody to replicon-encoded NS3/4A (genotype 1b replicon); assay type: cell-based, hepatitis C virus; settings: HCV genotype 1b replicon; 96 hours incubation; NS3/4A cell ELISA; read-out: 1b IC50
Summary of the method: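 An ELISA on lysed cells, using an antibody against NS3/4A protease, served as the proxy for replicon RNA. Cells had first been exposed for 96 h to serially diluted compound in G418-free conditions. Percent of DMSO control was fitted with a four-parameter function to give IC50.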

With `CCOP(=O)(O)CCCN(c1cc2oc(-c3ccc(F)cc3)c(C(=O)NC)c2cc1-c1ccc(OC)c(-c2nc3c(F)cccc3o2)c1)S(C)(=O)=O` [Example 844] the IC50 was 3.88 nM.

same assay, conditions: Hepatitis C virus, 96 h, read-out: 1b IC50(nM), HCV genotype 1b replicon; 96 hours incubation; NS3/4A cell ELISA

Point of comparison: `CNC(=O)c1c(-c2ccc(F)cc2)oc2cc(N(C)S(C)(=O)=O)c(-c3ccc(OC)c(-c4nc5cccc(C#N)c5o4)c3)cc12` [Example 858], IC50 2.8 nM. Against it:
- CNC(=O)c1c(-c2ccc(F)cc2)oc2cc(N(CC(C)(CO)CO)S(C)(=O)=O)c(-c3ccc(OC)c(-c4nc5c(F)cc(F)cc5o4)c3)cc12 [Example 788] — 28-fold higher, 79 nM
- CNC(=O)c1c(-c2ccc(F)cc2)oc2cc(N(CC(C)(C)F)S(C)(=O)=O)c(-c3ccc(OC)c(-c4nc5c(F)cccc5o4)c3)cc12 [Example 789] — 6.7-fold higher, 18.7 nM
- CNC(=O)c1c(-c2ccc(F)cc2)oc2cc(N(CC(C)(C)F)S(C)(=O)=O)c(-c3ccc(OC)c(-c4nc5c(F)cc(F)cc5o4)c3)cc12 [Example 791] — 10-fold higher, 28.5 nM
- CNC(=O)c1c(-c2ccc(F)cc2)oc2cc(N(CCC(C)(C)F)S(C)(=O)=O)c(-c3ccc(OC)c(-c4nc5c(F)cccc5o4)c3)cc12 [Example 796] — 5-fold higher, 14 nM
- CNC(=O)c1c(-c2ccc(F)cc2)oc2cc(N(CCC(C)(C)F)S(C)(=O)=O)c(-c3cccc(-c4nc5ncccc5o4)c3)cc12 [Example 797] — within 1.5-fold, 2.43 nM
- CNC(=O)c1c(-c2ccc(F)cc2)oc2cc(N(C(CF)CF)S(C)(=O)=O)c(-c3ccc(OC)c(-c4nc5c(F)cccc5o4)c3)cc12 [Example 807] — 17-fold higher, 46.7 nM
- CNC(=O)c1c(-c2ccc(F)cc2)oc2cc(N(CC(C)(CF)CF)S(C)(=O)=O)c(-c3ccc(OC)c(-c4nc5c(F)cc(F)cc5o4)c3)cc12 [Example 809] — 76-fold higher, 213 nM
- CNC(=O)c1c(-c2ccc(F)cc2)oc2cc(N(CC(F)CCF)S(C)(=O)=O)c(-c3ccc(OC)c(-c4nc5c(F)cccc5o4)c3)cc12 (stereo not shown) [Example 810] — 4.8-fold higher, 13.4 nM
- CNC(=O)c1c(-c2ccc(F)cc2)oc2cc(N(CC(C)(CO)CF)S(C)(=O)=O)c(-c3ccc(OC)c(-c4nc5c(F)cccc5o4)c3)cc12 (stereo not shown) [Example 813] — 38-fold higher, 107 nM
- CNC(=O)c1c(-c2ccc(F)cc2)oc2cc(N(C(CO)CF)S(C)(=O)=O)c(-c3ccc(OC)c(-c4nc5c(F)cccc5o4)c3)cc12 (stereo not shown) [Example 814] — 3.5-fold higher, 9.83 nM
- CNC(=O)c1c(-c2ccc(F)cc2)oc2cc(N(CC(O)CCF)S(C)(=O)=O)c(-c3ccc(OC)c(-c4nc5c(F)cccc5o4)c3)cc12 (stereo not shown) [Example 815] — 4.2-fold higher, 11.8 nM
- CNC(=O)c1c(-c2ccc(F)cc2)oc2cc(N(CC(O)CC#N)S(C)(=O)=O)c(-c3ccc(OC)c(-c4nc5c(F)cc(F)cc5o4)c3)cc12 (stereo not shown) [Example 819] — 3-fold higher, 8.3 nM
- CNC(=O)c1c(-c2ccc(F)cc2)oc2cc(N(CC(O)CC#N)S(C)(=O)=O)c(-c3ccc(OC)c(-c4nc5ccccc5o4)c3)cc12 (stereo not shown) [Example 820] — 1.8-fold higher, 5.06 nM
- CNC(=O)c1c(-c2ccc(F)cc2)oc2cc(N(CCC(O)CC#N)S(C)(=O)=O)c(-c3ccc(OC)c(-c4nc5c(F)cccc5o4)c3)cc12 (stereo not shown) [Example 821] — within 1.5-fold, 3.27 nM
- CNC(=O)c1c(-c2ccc(F)cc2)oc2cc(N(CC(O)Cn3ccnc3)S(C)(=O)=O)c(-c3ccc(OC)c(-c4nc5c(F)cccc5o4)c3)cc12 (stereo not shown) [Example 825] — 3.2-fold higher, 8.88 nM
- CNC(=O)c1c(-c2ccc(F)cc2)oc2cc(N(CC(O)Cn3ncc4ccccc43)S(C)(=O)=O)c(-c3ccc(OC)c(-c4nc5c(F)cccc5o4)c3)cc12 (stereo not shown) [Example 827] — 4.2-fold higher, 11.8 nM
- CNC(=O)c1c(-c2ccc(F)cc2)oc2cc(N(CC(C)N)S(C)(=O)=O)c(-c3cccc(-c4nc5ncccc5o4)c3)cc12 (stereo not shown) [Example 830] — 3-fold higher, 8.47 nM
- CNC(=O)c1c(-c2ccc(F)cc2)oc2cc(N(C3CN(C(=O)[C@@H](NC(=O)OC)C(C)C)C3)S(C)(=O)=O)c(-c3ccc(OC)c(-c4nc5c(F)cccc5o4)c3)cc12 [Example 834] — 4.1-fold higher, 11.5 nM
- CNC(=O)c1c(-c2ccc(F)cc2)oc2cc(N(C[C@@H](C)NC(=O)[C@@H](NC(=O)OC)C(C)C)S(C)(=O)=O)c(-c3cccc(-c4nc5ncccc5o4)c3)cc12 [Example 836] — 29-fold higher, 82 nM
- CNC(=O)c1c(-c2ccc(F)cc2)oc2cc(N(CCCP(=O)(O)O)S(C)(=O)=O)c(-c3ccc(OC)c(-c4nc5c(F)cccc5o4)c3)cc12 [Example 843] — 7-fold higher, 19.5 nM
- CN(C(=O)c1c(-c2ccc(F)cc2)oc2cc(N(C)S(C)(=O)=O)c(-c3cccc(-c4cc5ccccc5[nH]4)c3)cc12)c1ccncc1 [Example 848] — 2300-fold higher, 6440 nM
- CN(c1cc2oc(-c3ccc(F)cc3)c(C(=O)Nc3cccnc3)c2cc1-c1cccc(-c2cc3ccccc3[nH]2)c1)S(C)(=O)=O [Example 851, 5-(3-(1H-indol-2-yl)phenyl)-2-(4-fluorophenyl)-6-(N-methylmethylsulfonamido)-N-(pyridin-3-yl)benzofuran-3-carboxamide] — 130-fold higher, 350 nM
- CNC(=O)c1c(-c2ccc(F)cc2)oc2cc(N(C)S(C)(=O)=O)c(-c3ccc(F)c(-c4cc5cccnc5[nH]4)c3)cc12 [Example 855] — 2.3-fold lower, 1.2 nM
- CNC(=O)c1c(-c2ccc(F)cc2)oc2cc(N(CCCO)S(C)(=O)=O)c(-c3cc(F)cc(-c4nc5ncccc5o4)c3)cc12 [Example 856] — within 1.5-fold, 4 nM
- CNC(=O)c1c(-c2ccc(F)cc2)oc2cc(N(C)S(C)(=O)=O)c(-c3ccc(OC)c(-c4nc5cc(F)ccc5o4)c3)cc12 [Example 857] — within 1.5-fold, 2.6 nM
- CNC(=O)c1c(-c2ccc(F)cc2)oc2cc(N(CCC(C)(C)O)S(C)(=O)=O)c(-c3cccc(-c4nc5ncccc5o4)c3)cc12 [Example 859] — within 1.5-fold, 2.1 nM
- CNC(=O)c1c(-c2ccc(F)cc2)oc2cc(N(C)S(C)(=O)=O)c(-c3ccc(OC)c(-c4cc5cc(F)ccc5[nH]4)c3)cc12 [Example 860] — within 1.5-fold, 1.9 nM
- CNC(=O)c1c(-c2ccc(F)cc2)oc2cc(N(C)S(C)(=O)=O)c(-c3cc(OC)cc(-c4cc5cccnc5[nH]4)c3)cc12 [Example 861] — 1.6-fold lower, 1.8 nM
- CNC(=O)c1c(-c2ccc(F)cc2)oc2cc(N(C)S(C)(=O)=O)c(-c3cc(F)cc(-c4nc5ncc(F)cc5o4)c3)cc12 [Example 862] — 2.2-fold lower, 1.3 nM
- CNC(=O)c1c(-c2ccc(F)cc2)oc2cc(N(CCCF)S(C)(=O)=O)c(-c3ccc(OC)c(-c4nc5ncccc5o4)c3)cc12 [Example 863] — 1.6-fold lower, 1.8 nM
- CNC(=O)c1c(-c2ccc(F)cc2)oc2cc(N(C)S(C)(=O)=O)c(-c3ccc(Cl)c(-c4nc5c(F)cccc5o4)c3)cc12 [Example 865] — 1.7-fold higher, 4.7 nM
- CNC(=O)c1c(-c2ccc(F)cc2)oc2cc(N(C)S(C)(=O)=O)c(-c3cc(OC)cc(-c4nc5ncccc5o4)c3)cc12 [Example 866] — within 1.5-fold, 3.1 nM
- CNC(=O)c1c(-c2ccc(F)cc2)oc2cc(N(CCCF)S(C)(=O)=O)c(-c3cccc(-c4nc5ncccc5o4)c3)cc12 [Example 868] — 2.2-fold lower, 1.3 nM
- CNC(=O)c1c(-c2ccc(F)cc2)oc2cc(N(CC(F)F)S(C)(=O)=O)c(-c3cccc(-c4nc5ncccc5o4)c3)cc12 [Example 869] — within 1.5-fold, 2.3 nM
- CNC(=O)c1c(-c2ccc(F)cc2)oc2cc(N(CCF)S(C)(=O)=O)c(-c3ccc(OC)c(-c4nc5ncccc5o4)c3)cc12 [Example 870] — 2.2-fold lower, 1.3 nM
- CNC(=O)c1c(-c2ccc(F)cc2)oc2cc(N(CCF)S(C)(=O)=O)c(-c3ccc(OC)c(-c4nc5cccc(F)c5o4)c3)cc12 [Example 871] — within 1.5-fold, 3.5 nM
- CNC(=O)c1c(-c2ccc(F)cc2)oc2cc(N(CCC(F)(F)F)S(C)(=O)=O)c(-c3cccc(-c4nc5ncccc5o4)c3)cc12 [Example 872] — 1.7-fold higher, 4.7 nM
- CNC(=O)c1c(-c2ccc(F)cc2)oc2cc(N(CCF)S(C)(=O)=O)c(-c3cc(F)cc(-c4nc5ncccc5o4)c3)cc12 [Example 873] — within 1.5-fold, 3.4 nM
- CNC(=O)c1c(-c2ccc(F)cc2)oc2cc(N(C)S(C)(=O)=O)c(-c3ccc(OC)c(-c4nc5c(F)ccc(F)c5o4)c3)cc12 [Example 874] — within 1.5-fold, 2.1 nM
- CNC(=O)c1c(-c2ccc(F)cc2)oc2cc(N(C(C)CF)S(C)(=O)=O)c(-c3cccc(-c4nc5ncccc5o4)c3)cc12 (stereo not shown) [Example 875] — within 1.5-fold, 2.1 nM
- CNC(=O)c1c(-c2ccc(F)cc2)oc2cc(N(CC(F)F)S(C)(=O)=O)c(-c3cc(F)cc(-c4nc5ncccc5o4)c3)cc12 [Example 876] — within 1.5-fold, 3.5 nM
- CNC(=O)c1c(-c2ccc(F)cc2)oc2cc(N(CC(F)F)S(C)(=O)=O)c(-c3ccc(OC)c(-c4nc5ncccc5o4)c3)cc12 [Example 877] — 1.8-fold higher, 5.1 nM
- CNC(=O)c1c(-c2ccc(F)cc2)oc2cc(N(CC(F)F)S(C)(=O)=O)c(-c3ccc(OC)c(-c4nc5cccc(F)c5o4)c3)cc12 [Example 878] — 6.1-fold higher, 17.2 nM
- CNC(=O)c1c(-c2ccc(F)cc2)oc2cc(N(CCC(C)(C)O)S(C)(=O)=O)c(-c3cc(F)cc(-c4nc5ncccc5o4)c3)cc12 [Example 879] — within 1.5-fold, 2.6 nM
- CNC(=O)c1c(-c2ccc(F)cc2)oc2cc(N(CCC(C)(C)O)S(C)(=O)=O)c(-c3ccc(OC)c(-c4nc5ncccc5o4)c3)cc12 [Example 880] — within 1.5-fold, 2.9 nM

same assay, conditions: read-out: 1b IC50; HCV genotype 1b replicon; 96 hours incubation; NS3/4A cell ELISA

Point of comparison: `CNC(=O)c1c(-c2ccc(F)cc2)oc2cc(N(CC(O)Cn3ccnc3)S(C)(=O)=O)c(-c3ccc(OC)c(-c4nc5c(F)cccc5o4)c3)cc12` (stereo not shown) [Example 824], IC50 17.7 nM. Against it:
- CNC(=O)c1c(-c2ccc(F)cc2)oc2cc(N(CCF)S(C)(=O)=O)c(-c3cccc(-c4nc5ncccc5o4)c3)cc12 [Example 867] — 9.8-fold lower, 1.8 nM
